We go through 41 compounds from ChEMBL document CHEMBL1201862, “PubChem BioAssay data set” (2004).

SMILES strings stand for the structures. The source made the active and inactive calls.

Test [1] can be described thus: HEp-2 cell cytotoxicity, dose response, cytotoxicity control for RSV inhibitor project, HTS (AID 2410). Conditions: human respiratory syncytial virus. The class given is functional.
The target in test [2] is T1, Heat shock factor protein 1 (Mus musculus, UniProt P38532).
T1 sequence (P38532 whole entry): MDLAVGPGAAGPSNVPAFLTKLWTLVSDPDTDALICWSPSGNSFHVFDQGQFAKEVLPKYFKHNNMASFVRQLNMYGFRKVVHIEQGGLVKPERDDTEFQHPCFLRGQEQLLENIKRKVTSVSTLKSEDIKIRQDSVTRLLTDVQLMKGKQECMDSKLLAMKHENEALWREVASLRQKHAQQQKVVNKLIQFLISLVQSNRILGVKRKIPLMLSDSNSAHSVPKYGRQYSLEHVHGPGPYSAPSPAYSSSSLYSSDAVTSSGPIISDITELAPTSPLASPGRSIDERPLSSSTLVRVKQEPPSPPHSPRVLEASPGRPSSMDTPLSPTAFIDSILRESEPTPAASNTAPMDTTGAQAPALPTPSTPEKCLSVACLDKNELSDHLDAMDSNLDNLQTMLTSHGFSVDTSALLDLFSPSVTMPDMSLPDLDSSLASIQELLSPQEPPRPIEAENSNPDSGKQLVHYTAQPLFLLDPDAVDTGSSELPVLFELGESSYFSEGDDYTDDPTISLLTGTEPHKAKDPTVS
Description: inhibition of MG132-induced HSE-luciferase signal, confirmation, cell-based, NIH3T3, luminescence, dose retest (AID 2382).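 Further: NIH3T3 fibroblasts with HSF1-driven luciferase reporter stressed by proteasome inhibitor MG132; luminescence from HSF1-driven luciferase expression after 8 hours of MG132 stress.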 It is filed as functional.

The nature of test [3]: C. albicans growth with fluconazole, confirmation, fluorescence, retest (AID 2467). The class given is functional, cell-based.
A short description of test [4]: NIH-3T3 fibroblast cytotoxicity, dose response, cytotoxicity control, cell-based, fluorescence, Alamar Blue, secondary assay (AID 2327).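 Further: NIH-3T3 mouse fibroblasts cultured with fluconazole at 8 µg/mL.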 The class given is functional. A general note: Alamar Blue is a resazurin reagent that responds to reducing activity.
The next test has as its target Cytochrome P450 2C19 (Homo sapiens, UniProt P33261). Description: Cytochrome panel assay with activity outcomes. Panel member name: p450-cyp2c19 Compounds with AC50 equal or less than 10 uM are considered active. The following applies: read-out: AC50. It is filed as functional.
Another test deals with Cytochrome P450 3A4 (Homo sapiens, UniProt P08684).
Chain of Cytochrome P450 3A4 (P08684 whole entry): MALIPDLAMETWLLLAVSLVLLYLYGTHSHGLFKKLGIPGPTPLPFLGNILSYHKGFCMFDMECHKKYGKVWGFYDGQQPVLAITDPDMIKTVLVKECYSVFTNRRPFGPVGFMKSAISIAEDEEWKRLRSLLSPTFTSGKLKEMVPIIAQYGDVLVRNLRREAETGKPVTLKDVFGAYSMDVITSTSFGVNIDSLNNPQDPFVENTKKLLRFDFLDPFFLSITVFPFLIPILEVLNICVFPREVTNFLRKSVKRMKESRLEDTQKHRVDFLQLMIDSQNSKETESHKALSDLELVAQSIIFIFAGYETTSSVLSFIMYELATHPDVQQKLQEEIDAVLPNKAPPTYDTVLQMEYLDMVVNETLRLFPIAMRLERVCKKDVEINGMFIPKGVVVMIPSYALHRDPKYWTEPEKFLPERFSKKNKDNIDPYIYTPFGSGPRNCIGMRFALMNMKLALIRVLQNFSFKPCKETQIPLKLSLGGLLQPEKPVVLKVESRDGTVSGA
In another test the target is Cytochrome P450 2C9 (Homo sapiens, UniProt P11712).
Chain of Cytochrome P450 2C9 (P11712 whole entry): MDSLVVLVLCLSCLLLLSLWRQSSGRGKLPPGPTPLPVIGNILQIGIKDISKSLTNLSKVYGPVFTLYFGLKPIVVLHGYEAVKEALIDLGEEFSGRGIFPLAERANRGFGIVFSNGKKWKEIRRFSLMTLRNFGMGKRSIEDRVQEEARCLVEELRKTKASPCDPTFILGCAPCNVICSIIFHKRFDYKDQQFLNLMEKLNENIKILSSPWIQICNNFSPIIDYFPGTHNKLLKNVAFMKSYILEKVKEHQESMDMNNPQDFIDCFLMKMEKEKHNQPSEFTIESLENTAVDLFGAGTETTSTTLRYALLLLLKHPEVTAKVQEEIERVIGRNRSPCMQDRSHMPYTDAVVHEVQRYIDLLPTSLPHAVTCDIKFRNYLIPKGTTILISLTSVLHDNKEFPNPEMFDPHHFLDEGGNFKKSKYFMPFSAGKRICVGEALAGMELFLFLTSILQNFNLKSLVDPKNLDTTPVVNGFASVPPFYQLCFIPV
Test [5] in a line: cytotoxicity toward NIH3T3 fibroblasts, dose response, counter-screen, cell-based, ATP luminescence, mouse fibroblasts (AID 2010).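 Further: cells exposed to compound for about 90 hours before reading.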 It is filed as functional.
The nature of test [6]: inhibitors of intracellular T. cruzi replication, confirmation, NIH3T3 host cells, beta-gal luminescence (AID 2044).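 Further: intracellular parasites grown in NIH/3T3 mouse fibroblasts as host cells; luminescent beta-galactosidase reporter signal from transgenic T. cruzi replicating inside host cells; inhibitors lower the luminescence signal.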 The class given is functional, cell-based.
In another test the test system is INS1. Description: beta cell apoptosis inhibitors, cytokine rescue, dose response, luminescence, retest (AID 449756).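 Further: cell death triggered by IL-1 beta plus TNF-alpha plus IFN-gamma mixture; protective hits raise ATP signal compared with cytokine alone wells.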 Conditions: Rattus norvegicus. The class given is functional, cell-based.
Another test addresses T2, Cytochrome P450 1A2 (Homo sapiens, UniProt P05177).
T2 sequence (P05177 whole entry): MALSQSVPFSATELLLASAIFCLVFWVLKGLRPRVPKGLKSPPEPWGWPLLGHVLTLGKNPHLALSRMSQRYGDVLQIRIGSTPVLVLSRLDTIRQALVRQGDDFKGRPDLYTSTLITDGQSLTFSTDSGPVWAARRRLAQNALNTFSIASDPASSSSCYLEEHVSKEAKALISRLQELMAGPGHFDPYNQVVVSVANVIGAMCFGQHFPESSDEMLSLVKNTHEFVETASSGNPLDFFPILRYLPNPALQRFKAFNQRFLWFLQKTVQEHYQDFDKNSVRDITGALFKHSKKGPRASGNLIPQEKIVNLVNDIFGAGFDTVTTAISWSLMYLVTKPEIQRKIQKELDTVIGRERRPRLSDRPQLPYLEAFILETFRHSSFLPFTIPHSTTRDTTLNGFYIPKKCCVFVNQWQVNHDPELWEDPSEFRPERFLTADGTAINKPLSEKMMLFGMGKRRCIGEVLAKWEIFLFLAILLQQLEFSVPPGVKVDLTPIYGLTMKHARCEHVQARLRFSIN

The next test relates to H4. In words: Luminescence Cell-Based Dose Response HTS to Identify Activators of 5'UTR Stem-Loop Driven Prion Protein mRNA Translation in H4 Neuroglioblastoma Cells. [Related pubchem assays: 1829 (Project Summary), 1814 (Primary HTS)]. It is filed as functional. The following applies: Homo sapiens.
Test [7] in a line: Luminescence Cell-Based Dose Response HTS to Identify Activators of Luciferase Translation or Activity in H4 […] Cells. [Related pubchem assays: 1829 (Project Summary), 1814 (Primary HTS)]. It is filed as functional.
Test [8] can be described thus: Luminescence Cell-Based Dose Confirmation HTS to Identify Activators of 5'UTR Stem-Loop Driven Alpha-Synuclein mRNA Translation in H4 Neuroglioblastoma Cells. [Related pubchem assays: 1829 (Project Summary), 1814 (Primary HTS)]. It is filed as functional.
Test [9] has as its target T3, RNA-binding protein pos-1 (Caenorhabditis elegans, UniProt G5EF15).
T3 sequence (G5EF15 whole entry): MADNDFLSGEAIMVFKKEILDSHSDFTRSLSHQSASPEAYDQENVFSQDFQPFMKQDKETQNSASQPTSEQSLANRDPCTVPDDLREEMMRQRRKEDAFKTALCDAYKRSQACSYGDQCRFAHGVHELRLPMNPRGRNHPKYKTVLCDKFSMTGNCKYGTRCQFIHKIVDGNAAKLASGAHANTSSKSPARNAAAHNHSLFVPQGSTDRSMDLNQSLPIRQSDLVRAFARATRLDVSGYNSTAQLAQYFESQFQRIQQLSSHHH
In words: inhibitors of POS-1/mex-3 RNA binding, dose response, biochemical, fluorescence polarization (AID 1964).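 Further: purified POS-1 fused to maltose binding protein made in E. coli; potency of compounds blocking POS-1 binding to fluorescent RNA.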 Background: In fluorescence polarisation assays a small probe gives low polarisation when free and higher when bound to something large.

The CC50 is the concentration that lowers cell viability or growth by half. What is called EC50 is the concentration needed to bring the measured effect to its halfway point. Broadly, the AC50 is the concentration at which the activity in the assay is half-maximal.

Chain of Cytochrome P450 2C19 (P33261 whole entry): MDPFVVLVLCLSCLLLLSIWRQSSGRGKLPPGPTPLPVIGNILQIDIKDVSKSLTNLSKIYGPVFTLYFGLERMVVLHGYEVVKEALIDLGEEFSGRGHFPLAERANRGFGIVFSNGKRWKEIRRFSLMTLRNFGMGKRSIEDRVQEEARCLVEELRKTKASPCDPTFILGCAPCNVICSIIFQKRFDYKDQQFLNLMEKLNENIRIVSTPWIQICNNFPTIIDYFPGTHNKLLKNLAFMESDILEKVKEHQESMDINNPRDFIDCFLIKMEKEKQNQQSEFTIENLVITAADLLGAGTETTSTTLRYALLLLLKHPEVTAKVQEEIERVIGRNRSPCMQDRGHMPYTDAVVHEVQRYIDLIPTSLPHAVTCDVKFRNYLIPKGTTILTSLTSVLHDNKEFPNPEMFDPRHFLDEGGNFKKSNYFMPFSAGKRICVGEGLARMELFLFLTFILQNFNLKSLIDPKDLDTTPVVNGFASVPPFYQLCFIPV

With `Cc1cccc(-c2nc(C#N)c(NCc3ccco3)o2)c1`, the CC50 in test [1] was 42.9 µM (active).

Regarding `CC(C)c1nc(SCc2c(F)cccc2Cl)c2c(=O)n(C)c(=O)n(C)c2n1`, the EC50 in test [2] was > 195 µM (not active). In addition, in [1], the CC50 was 7.44 µM (active).

For `Cc1ccc(-c2c[n+](CC(=O)N3c4ccccc4Sc4ccccc43)c3n2CCC3)cc1`, the EC50 was 2.77 µM (active) in [3] and > 150 µM (inactive) in [4].

`CCSc1c(C(=O)NC)ccc2c1C(=O)c1ccccc1C2=O`: the AC50 is 28.2 µM (inconclusive) on Cytochrome P450 2C19, 12.6 µM (inconclusive) on Cytochrome P450 3A4 and 10 µM (inconclusive) at Cytochrome P450 2C9.

In the case of `CC(=O)c1cccc(Nc2nc(-c3sc(C)nc3C)cs2)c1`, the CC50 in [1] is > 50 µM (active).

For `CCN(Cc1ccccc1)C(c1cccs1)c1nnnn1C1CCCCC1` (stereo not given), the EC50 is 16.3 µM (active) in [5] and 3.97 µM (active) in test [6]. Moreover, the AC50 with INS1 is 9.27 µM (active).

As to `Oc1ccc(N2CCN(C(S)=NCCc3ccccc3)CC2)cc1`, the EC50 in test [3] was 0.177 µM (active); in [4], > 150 µM (inactive).

With `Cc1cc(Cl)ccc1Oc1cccc(C(=O)/C(C#N)=C/N(C)C)c1`, the CC50 in test [1] is 29.1 µM (active).

For the compound `COc1ccc(-c2cc(C(F)(F)F)n3ncc(C(=O)NCC4CCCO4)c3n2)cc1OC` (stereo not given), the AC50 on Cytochrome P450 2C19 is 14.1 µM (inconclusive); at Cytochrome P450 1A2 it was 5.01 µM (inconclusive); at Cytochrome P450 3A4, 3.55 µM (inconclusive); at Cytochrome P450 2C9 it was 7.94 µM (inconclusive).

Take `Cc1cccc(Cc2nnc(CCC(=O)N3CCCCC3c3nccs3)o2)c1` (stereo not given): the EC50 in [3] is > 38 µM (not active); in test [4], > 160 µM (inactive).

On to `CSc1nnc(C)c(/C=C/Nc2ccc(Cl)cc2)n1`, for which the CC50 in test [1] is > 50 µM (active).

`COc1ccc(CCNC(=O)c2ccc3c(c2)N(Cc2ccc(C)cc2)CCS3)cc1OC`: the CC50 in test [1] is 35.9 µM (active).

`COc1ccc(C(=O)/C=C/c2ccccc2OC)c(OC(=O)c2ccc([N+](=O)[O-])cc2)c1`: the values for the EC50 (in the test on H4; in [7]; in test [8]) were 54.1 µM (inconclusive), 23.8 µM (active) and 17.3 µM (active), respectively. Moreover, the CC50 in test [1] is 19.1 µM (active).

In the case of `Fc1ccc(Cn2nnnc2CN2CCC(n3nnc4cc(C(F)(F)F)ccc43)CC2)cc1`, the CC50 in [1] is 15 µM (active).

On to `Cc1oc2c(cc(NS(=O)(=O)c3cccs3)c3ccccc32)c1C(=O)OC(C)C`, for which the CC50 in test [1] is 20.3 µM (active).

With `Cn1c(=O)cnc2cnc(Nc3ccccc3)nc21`, the results for the AC50 at Cytochrome P450 2C19, on Cytochrome P450 3A4 and at Cytochrome P450 2C9 were 7.94 µM (inconclusive), 25.1 µM (inconclusive) and 25.1 µM (inconclusive), respectively.

For `Cc1cc2[nH]c(=O)c(=O)[nH]c2cc1S(=O)(=O)N1CCN(c2ccccc2F)CC1`, the EC50 in test [3] is > 38 µM (not active); in test [4], > 150 µM (inactive).

For `O=C(CCCl)N(Cc1nc(O)c2ccccc2n1)Cc1cccs1`, the figures for the EC50 in test [3] and in test [4] were > 38 µM (not active) and > 160 µM (inactive), respectively.

In the case of `COc1cc2c(cc1OC)C(NC(=O)C(F)(F)F)CNC2=O` (stereo not given), the AC50 in the test with INS1 is > 260 µM (inconclusive).

On to `FC(F)(F)c1cnc(NN=C(S)Nc2ccc(Cl)cc2)c(Cl)c1`, for which the AC50 in the test on INS1 is 3.44 µM (active).

On to `O=NN(CCc1ccncc1)c1ccc(OCc2ccccc2)cc1`, for which, in the test with INS1, the concentration at half-maximal activity (AC50) was 6.05 µM (active).

Take `O=C(Nc1ccc(C(=O)Nc2ccccc2Cl)cc1)c1cccnc1`: the AC50 with INS1 was 1.06 µM (active).

Consider `O=C(c1cc2c(s1)-c1ccccc1OC2)N1CCC2(CC1)OCCO2`, for which the EC50 is 2.9 µM (active) in test [3] and 43.1 µM (active) in test [4].

With `CCOC(=O)CSc1ccc(C(=O)N2CCN(C)CC2)cc1[N+](=O)[O-]`, the EC50 in test [3] is > 38 µM (not active); in [4], > 160 µM (inactive).

`O=C(COC(=O)c1cn(-c2ccccc2)nc1-c1ccccc1)c1cccc([N+](=O)[O-])c1`: in the test with INS1, the AC50 was 4.4 µM (active).

As for `CCCCSc1ccc(NC(=O)c2cccnc2)cc1`, the AC50 in the test on INS1 is 8.46 µM (active).

With `N#Cc1nc(Cc2ccccc2)oc1NCCc1ccccc1`, the EC50 is 14.5 µM (active) in the test with H4, 56.9 µM (active) in test [7] and 4.71 µM (active) in [8]. For the same compound, the half-maximal cytotoxic concentration (CC50) in [1] was 28.9 µM (active).

As for `COc1cc(C2C(C#N)=C(N)N(c3ccc(F)cc3)C3=C2S(=O)(=O)CC3)ccc1O` (stereo not given), the EC50 in test [3] is > 38 µM (not active); in test [4] it was > 160 µM (inactive).

With `CCCn1c(CC)nc([N+](=O)[O-])c1Sc1ccc(F)cc1`, the results for the EC50 in test [3] and in test [4] were > 38 µM (not active) and 16.3 µM (active), respectively.

`CCOc1ccccc1NC(=O)c1cc(S(=O)(=O)N2CCC3(CC2)OCCO3)ccc1F`: the EC50 in test [3] is > 38 µM (not active); in [4] it was > 160 µM (inactive).

`CN1CC2([N+](=O)[O-])CC=C(OCCO)C([N+](=O)[O-])(C1)C2` (stereo not given): the values for the EC50 in test [3] and in test [4] were > 38 µM (not active) and > 150 µM (inconclusive), respectively.

As for `COc1c(C)cc(Br)cc1C(=O)Nc1ccccc1N1CCN(C(=O)c2ccccc2)CC1`, the EC50 in test [5] is > 60 µM (not active); in [6], 2.52 µM (active). Moreover, the CC50 in [1] was 31.5 µM (active).

Consider `Oc1nc(SCc2ccccc2F)nc2ccccc12`, for which the results for the EC50 in test [3] and in test [4] were 1.26 µM (active) and > 150 µM (inactive), respectively.

For `Brc1ccc(-c2ncc3ccccn23)cc1`, the CC50 in test [1] is 29.9 µM (active).

`CCOC(=O)C1(Cc2cccc(Cl)c2)CCCN(C(=O)c2ccc(COC)s2)C1` (stereo not given): the AC50 in the test on INS1 was > 260 µM (inactive).

`C/C(=N\N=C(/N)SC1CC(=O)N(c2cccc(Cl)c2)C1=O)c1cccs1` (stereo not given): in [1], the CC50 was 19.4 µM (active).

Take `O=C(N/N=C/c1ccc(Sc2nc3ccccc3s2)c([N+](=O)[O-])c1)c1ccccn1`: the AC50 at Cytochrome P450 2C19 was 7.08 µM (inconclusive); on Cytochrome P450 3A4 it was 3.55 µM (inconclusive); at Cytochrome P450 2C9, 0.00562 µM (inconclusive).

As to `CC(=O)/N=c1\c(C#N)cc2c(=O)n3cccc(C)c3nc2n1CCCOC(C)C`, the EC50 in test [9] is given as > 300 µM (not active).

Consider `O=c1cc(-c2ccccc2)c2ccc(O)cc2o1`, for which the EC50 was 117 µM (active) in test [2], 2.12 µM (active) in test [3] and > 160 µM (inconclusive) in test [4].

In the case of `C[C@]12CC[C@@H]3c4ccc(O)cc4CC[C@H]3[C@@H]1CCC2=O` [ESTRONE], the CC50 in [1] is 33 µM (active).

Take `C=C1C[C@H]2[C@@H]3C=C(C)C4=CC(=O)CC[C@]4(C)[C@H]3CC[C@]2(C)[C@@]1(OC(C)=O)C(C)=O` [MELENGESTROL ACETATE]: the CC50 in test [1] was 26.5 µM (active).
